# From patent publication US6723331B1, “Termite-controlling agent and a controlling method thereof” (Sumitomo Chemical Company, Limited, priority 1992, dated 2004)
# Where two headings read alike, the source gives them in different places.
# Test system: Formosan subterranean termites (Coptotermes formosanus)
# Assay: whole plant or invertebrate
# Details: soil, 72 h
# Experimental: The emulsifiable concentrates obtained in Formulation Examples 1, 2 and 3 were each diluted with distilled water to a predetermined concentration. Five milliliters of every dilute chemicals solution was added to 100 g of sandy loam previously heat-sterilized, and the mixture was thoroughly mixed to prepare a test soil. This test soil was stored at 40° C. under a dark condition. After storage for a predetermined period of time (2 months and 3 months), about 15 g of the test soil was put in a plastic dish (diameter, 9 cm; height, 2 cm) and wetted. Twenty workers of Formosan subterranean termites (Coptotermes formosanus) were liberated in the plastic dish. After the dish was kept at room temperature for 3 days, the condition of the termites was observed.
# For comparison, the same test was also carried out using each of fenvalerate and MGK 264.
# The same test as in Test Example 1 was carried out using the emulsifiable concentrates obtained in Formulation Examples 6 and 7.
# For comparison, the same test was also carried out using each of permethrin and MGK 264.
# [1] = read-out: Mortality (%) after 3 days
smiles,measurement,setting,value
"CC(C)C(C(=O)OC(C#N)c1cccc(Oc2ccccc2)c1)c1ccc(Cl)cc1 (stereo not drawn) [Fenvalerate, α-cyano-3-phenoxy-benzyl-2-(4-chlorophenyl)-3-methylbutyrate]",mortality at 125 ppm,"read-out: Mortality (%) after 3 days, 125 ppm, treated soil stored 2 months at 40° C., Table 1",0%
same,mortality at 125 ppm,"read-out: Mortality (%) after 3 days, 125 ppm, treated soil stored 3 months at 40° C., Table 1",0%
same,mortality at 250 ppm,"read-out: Mortality (%) after 3 days, 250 ppm, treated soil stored 2 months at 40° C., Table 1",0%
same,mortality at 250 ppm,"read-out: Mortality (%) after 3 days, 250 ppm, treated soil stored 3 months at 40° C., Table 1",0%
"CCCCC(CC)CN1C(=O)C2C3C=CC(C3)C2C1=O (centres unmarked) [MGK 264, N-(2-ethylhexyl)bicyclo[2.2.1]hept-5-en-2,3-dicarboximide]",mortality at 500 ppm,[1],0%
same,mortality at 1000 ppm,[1],0%
"CC1(C)C(C=C(Cl)Cl)C1C(=O)OCc1cccc(Oc2ccccc2)c1 (centres unmarked) [Permethrin, 3-phenoxybenzyl 3-(2,2-dichlorovinyl)-2,2-dimethylcyclopropanecarboxylate]",mortality at 125 ppm,"read-out: Mortality (%) after 3 days, 125 ppm, treated soil stored 2 months at 40° C., Table 2",80%
same,mortality at 125 ppm,"read-out: Mortality (%) after 3 days, 125 ppm, treated soil stored 3 months at 40° C., Table 2",30%
